Source: US7923452B2, “Fungicidal mixtures comprising boscalid and pyrimethanil” (BASF SE, priority 2005, dated 2011)

Tested on: Puccinia recondita
Assay: Protective activity against Puccinia recondita on wheat (brown rust of wheat) (Puccrt P1)
Format: in vivo, Puccinia recondita on wheat seedlings cultivar "Kanzler"
Details: single active compound, protective spray 1 day before inoculation, efficacy in % of untreated control (Abbot), read-out: Observed activity (%)
Experimental: The active compounds, separately or jointly, were prepared as a stock solution comprising 25 mg of active compound which was made up to 10 ml using a mixture of acetone and/or dimethyl sulfoxide and the emulsifier Uniperol® EL (wetting agent having an emulsifying and dispersing action based on ethoxylated alkylphenols) in a ratio by volume of solvent/emulsifier of 99:1. The mixture was then made up to 100 ml with water. This stock solution was diluted with the solvent/emulsifier/water mixture described to give the concentration of active compound stated below.
The visually determined percentages of infected leaf areas were converted into efficacies in % of the untreated control:
The efficacy (E) is calculated as follows using Abbot's formula. W=(1−α/β)·100 α corresponds to the fungicidal infection of the treated plants in % and β corresponds to the fungicidal infection of the untreated (control) plants in %
At an efficacy of 0, the infection level of the treated plants corresponds to that of the untreated control plants; at an efficacy of 100, the treated plants are not infected.
The expected efficacies of active compound mixtures were determined using Colby's formula (S. R. Colby, “Calculating synergistic and antagonistic responses of herbicide combinations”, Weeds 15, 20-22 (1967)) and compared with the observed efficacies.
Colby's formula: E=x+y−x−y/100 • E expected efficacy, expressed in % of the untreated control, when using the mixture of the active compounds A and B at the concentrations a and b; • x efficacy, expressed in % of the untreated control, when using the active compound A at the concentration a; • y efficacy, expressed in % of the untreated control, when using the active compound B at the concentration b;
Leaves of potted wheat seedlings of the cultivar “Kanzler” were sprayed to runoff point with an aqueous suspension having the concentration of active compound stated below. […] The extent of the rust fungus development on the leaves was then determined visually.

| Structure (SMILES) | inhibition at 8 ppm (8 ppm) | inhibition at 2 ppm (2 ppm) | inhibition at 4 ppm (4 ppm) |
| --- | --- | --- | --- |
| O=C(Nc1ccccc1-c1ccc(Cl)cc1)c1cccnc1Cl [Boscalid, boscalid] | 22% |  |  |
| Cc1cc(C)nc(Nc2ccccc2)n1 [Pyrimethanil, pyrimethanil] |  | 0% | 0% |
